Assay results reported in patent publication US20130261077A1 (priority 2012, published 2013).

What follows are compounds tested against T1, FimH-CRD (Escherichia coli, UniProt P08191) (assay: Competitive binding assay by fluorescence polarization, assay 2 (compounds prepared by robotics, plates frozen and thawed)).
T1 construct: The first 177 amino acids of the FimH protein; thrombin tag (printed as 'fusion protein with thrombin') (cleaved yes); made in house; host or cells: bacteria (pET21b plasmid)
T1 sequence (P08191 22-177): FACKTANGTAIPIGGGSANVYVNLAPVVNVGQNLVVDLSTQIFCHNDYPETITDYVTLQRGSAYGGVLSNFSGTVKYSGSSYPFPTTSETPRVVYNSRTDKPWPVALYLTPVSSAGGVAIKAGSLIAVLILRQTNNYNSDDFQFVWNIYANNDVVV
Method: The first 177 amino acids of the FimH protein were expressed as a fusion protein with thrombin in a pET21b plasmid in bacteria. This FimH protein sequence contains the carbohydrate recognition domain (CRD) and shall be termed FimH-CRD. Following bacterial expression of the protein, the FimH-CRD protein was purified to homogeneity and the thrombin tag removed by protease cleavage. A competitive binding assay by fluorescence polarization was performed using 5 nM of the Alexa 647 mannoside probe and 60 nM of the FimH-CRD. The samples are assayed in a low volume 384 well microtiter plate in a final volume of 20 μl. The final assay buffer conditions are the following, 50 mM Tris-Cl, ph 7.0, 100 mM NaCl, 1 mM EDTA, 5 mM β-mercaptoethanol, 0.05% BSA and 2.5% DMSO. Two assays are performed for FimH, termed assay 1 or assay 2. The assay conditions are the same for both assays except the following: assay 1 has compounds prepared by manual dilution in a serial dilution factor with 12-point dose response while assay 2 has compounds prepared by a robotics system also through a serial dilution factor (12 point dose response) and initially prepared in duplicate in 384 well-Corning polypropylene round bottom plates. The assay 2 plates have compound which is then frozen and must be thawed prior to use. Initially the Alexa 647 probe and the FimH-CRD are added to the assay buffer and then 0.5 μl of test compound (assay 1 or 2) between 0.4 nM to 75 μM final concentration are added (12 point titration with 3-fold serial dilution). Control wells for the Alexa 647 probe are prepared with the same conditions except for the addition of the FimH-CRD protein. Plates are then incubated for 5 hrs at room temperature in the dark and under humid conditions to prevent drying. Plates are read using the SpectraMax Paradigm multi-mode plate reader and the appropriate fluorescent polarization detection cartridge (Alexa-647).
Alexa 647 mannoside probe is prepared using the similar procedure reported for FAM mannoside (Han, Z. et. al., 2010, J. Med. Chem., 53, 4779) and is described in the scheme below.
To a blue colored stirred solution of (2S,3S,4S,5S,6R)-2-(4-aminobutoxy)-6-(hydroxymethyl)tetrahydropyran-3,4,5-triol (2.21 mg, 0.009 mmol) and the (2E)-2-[(2E,4E)-5-[3,3-dimethyl-5-sulfonato-1-(3-sulfonatopropyl)indol-1-ium-2-yl]penta-2,4-dienylidene]-3-[6-(2,5-dioxopyrrolidin-1-yl)oxy-6-oxo-hexyl]-3-methyl-1-(3-sulfonatopropyl)indoline-5-sulfonate (Potassium Ion (3)) (4.9 mg, 0.0044 mmol) in DMF (44 μL) is added Et3N (5.4 mg, 7.0 μL, 0.053 mmol) at RT. The solution is stirred at room temperature over night, concentrated, dissolved in water and purified on 12 g C-18 silica gel cartridge on Isolera system using acetonitrile in water (0 to 40%, 10 CV) and followed by lyophilization to afford Alexa 647 mannoside probe (3.3 mg, 34%) as deep blue solid.
The Kd values of the compounds are determined from dose response curves using twelve concentrations per compound in duplicate. Curves are fitted to data points using Fluorescence Polarization competitive displacement analysis, and Kds are interpolated from the resulting curves using GraphPad Prism software, version […] (GraphPad software Inc., San Diego, Calif., USA).

| SMILES | Kd |
| --- | --- |
| OC[C@H]1O[C@H](c2cccc(CCCc3ccccc3)c2)[C@@H](O)[C@@H](O)[C@@H]1O [Compound 99] | 26.4 ± 1.1 nM |
| COC(=O)c1ccc(CCc2ccc([C@H]3O[C@H](CO)[C@@H](O)[C@H](O)[C@@H]3O)cc2)cc1 [Compound 100, Methyl 4-[2-[4-[(2R,3S,4R,5S,6R)-3,4,5-trihydroxy-6-(hydroxymethyl)tetrahydropyran-2-yl]phenyl]ethyl]benzoate] | 12 ± 3.1 nM |
| COC(=O)c1cccc(CCc2cccc([C@H]3O[C@H](CO)[C@@H](O)[C@H](O)[C@@H]3O)c2)c1 [Compound 101, Methyl 3-[2-[3-[(2R,3S,4R,5S,6R)-3,4,5-trihydroxy-6-(hydroxymethyl)tetrahydropyran-2-yl]phenyl]ethyl]benzoate] | 12.9 ± 9.7 nM |
| OC[C@H]1O[C@H](c2cccc(CCc3ccccc3)c2)[C@@H](O)[C@@H](O)[C@@H]1O [Compound 102, (2R,3S,4R,5S,6R)-2-(Hydroxymethyl)-6-[3-(2-phenylethyl)phenyl]tetrahydropyran-3,4,5-triol] | 22 ± 3.4 nM |
| COC(=O)c1ccc(CCc2cccc([C@H]3O[C@H](CO)[C@@H](O)[C@H](O)[C@@H]3O)c2)cc1 [Compound 103, Methyl 4-[2-[3-[(2R,3S,4R,5S,6R)-3,4,5-trihydroxy-6-(hydroxymethyl)tetrahydropyran-2-yl]phenyl]ethyl]benzoate] | 9.7 ± 4.5 nM |
| Cc1nnc(-c2ccc(-c3cccc([C@H]4O[C@H](CO)[C@@H](O)[C@H](O)[C@@H]4O)c3C)cc2)o1 [Compound 104, (2R,3S,4R,5S,6R)-2-(Hydroxymethyl)-6-[2-methyl-3-[4-(5-methyl-1,3,4-oxadiazol-2-yl)phenyl]phenyl]tetrahydropyran-3,4,5-triol] | 8.5 ± 3.1 nM |
| CCc1c(-c2ccc(-c3nnc(C)o3)cc2)cccc1[C@H]1O[C@H](CO)[C@@H](O)[C@H](O)[C@@H]1O [Compound 105, (2R,3S,4R,5S,6R)-2-[2-Ethyl-3-[4-(5-methyl-1,3,4-oxadiazol-2-yl)phenyl]phenyl]-6-(hydroxymethyl)tetrahydropyran-3,4,5-triol] | 28.1 ± 3.9 nM |
| Cc1nnc(-c2ccc(-c3cccc([C@H]4O[C@H](CO)[C@@H](O)[C@H](O)[C@@H]4O)c3F)cc2)o1 [Compound 106, (2R,3S,4R,5S,6R)-2-[2-Fluoro-3-[4-(5-methyl-1,3,4-oxadiazol-2-yl)phenyl]phenyl]-6-(hydroxymethyl)tetrahydropyran-3,4,5-triol] | 23.4 ± 7.5 nM |
| COc1cc(-c2nnc(C)o2)ccc1-c1cccc([C@H]2O[C@H](CO)[C@@H](O)[C@H](O)[C@@H]2O)c1C [Compound 107, (2R,3S,4R,5S,6R)-2-(hydroxymethyl)-6-[3-[2-methoxy-4-(5-methyl-1,3,4-oxadiazol-2-yl)phenyl]-2-methyl-phenyl]tetrahydropyran-3,4,5-triol] | 9.8 ± 0.6 nM |
| Cc1c(-c2ccc(-c3ccn(C)n3)cc2)cccc1[C@H]1O[C@H](CO)[C@@H](O)[C@H](O)[C@@H]1O [Compound 108, (2R,3S,4R,5S,6R)-2-(Hydroxymethyl)-6-[2-methyl-3-[4-(1-methylpyrazol-3-yl)phenyl]phenyl]tetrahydropyran-3,4,5-triol] | 7.9 ± 2.9 nM |
| Cc1c(-c2ccc(S(C)(=O)=O)cc2)cccc1[C@H]1O[C@H](CO)[C@@H](O)[C@H](O)[C@@H]1O [Compound 109, (2R,3S,4R,5S,6R)-2-(Hydroxymethyl)-6-[2-methyl-3-(4-methylsulfonylphenyl)phenyl]tetrahydropyran-3,4,5-triol] | 14.4 ± 6.2 nM |
| Cc1c(-c2cccc(S(C)(=O)=O)c2)cccc1[C@H]1O[C@H](CO)[C@@H](O)[C@H](O)[C@@H]1O [Compound 110, (2R,3S,4R,5S,6R)-2-(Hydroxymethyl)-6-[2-methyl-3-(3-methylsulfonylphenyl)phenyl]tetrahydropyran-3,4,5-triol] | 28.9 ± 4.5 nM |
| CN(C)Cc1nnc(-c2ccc(-c3cccc([C@H]4O[C@H](CO)[C@@H](O)[C@H](O)[C@@H]4O)c3)cc2)o1 [Compound 113, (2R,3S,4R,5S,6R)-2-[3-[4-[5-[(Dimethylamino)methyl]-1,3,4-oxadiazol-2-yl]phenyl]phenyl]-6-(hydroxymethyl)tetrahydropyran-3,4,5-triol] | 20.7 ± 4.7 nM |
